Counter-ions that a name gives are not always drawn.
Target: T1, human V1a receptor (Homo sapiens, UniProt P37288)
T1 construct: expressed in transfected cells; host or cells: HEK293 cells, transiently transfected; membranes prepared
Experiment: human V1a receptor binding (3H-Vasopressin SPA, HEK293 membranes)
Details: membranes of HEK293 cells transiently transfected with human V1a receptor, Ki by Cheng-Prussoff, read-out: pKi (hV1a) (converted)
Experimental: The human V1a receptor was cloned by RT-PCR from total human liver RNA. The coding sequence was subcloned in an expression vector after sequencing to confirm the identity of the amplified sequence. […] Cell membranes were prepared from HEK293 cells transiently transfected with the expression vector and grown in 20 liter fermenters with the following protocol.
50 g of cells are resuspended in 30 ml freshly prepared ice cold Lysis buffer (50 mM HEPES, 1 mM EDTA, 10 mM magnesium dichloride adjusted to pH=7.4+complete cocktail of protease inhibitor (Roche Diagnostics)). Homogenized with Polytron for 1 min and sonicated on ice for 2×2 minutes at 80% intensity (Vibracell sonicator). The preparation is centrifuged 20 min at 500 g at 4° C., the pellet is discarded and the supernatant centrifuged 1 hour at 43,000 g at 4° C. (19,000 rpm). The pellet is resuspended in 12.5 ml Lysis buffer+12.5 ml sucrose 20% and homogenized using a Polytron for 1-2 min. The protein concentration is determined by the Bradford method and aliquots are stored at −80° C. until use. For binding studies 60 mg Yttrium silicate SPA beads (Amersham®) are mixed with an aliquot of membrane in binding buffer (50 mM Tris, 120 mM sodium chloride, 5 mM potassium chloride, 2 mM calcium dichloride, 10 mM magnesium dichloride) for 15 minutes with mixing. 50 μl of bead/membrane mixture is then added to each well of a 96 well plate, followed by 50 μl of 4 nM 3H-Vasopressin (American Radiolabeled Chemicals). For total binding measurement 100 μl of binding buffer are added to the respective wells, for non-specific binding 100 μl of 8.4 mM cold vasopressin and for compound testing 100 μl of a serial dilution of each compound in 2% dimethyl sulfoxide. The plate is incubated 1 h at room temperature, centrifuged 1 min at 1000 g and counted on a Packard Top-Count. Non-specific binding counts are subtracted from each well and data is normalized to the maximum specific binding set at 100%. To calculate an IC50 the curve is fitted using a non-linear regression model (XLfit) and the Ki is calculated using the Cheng-Prussoff equation.

T1 sequence (P37288 whole entry): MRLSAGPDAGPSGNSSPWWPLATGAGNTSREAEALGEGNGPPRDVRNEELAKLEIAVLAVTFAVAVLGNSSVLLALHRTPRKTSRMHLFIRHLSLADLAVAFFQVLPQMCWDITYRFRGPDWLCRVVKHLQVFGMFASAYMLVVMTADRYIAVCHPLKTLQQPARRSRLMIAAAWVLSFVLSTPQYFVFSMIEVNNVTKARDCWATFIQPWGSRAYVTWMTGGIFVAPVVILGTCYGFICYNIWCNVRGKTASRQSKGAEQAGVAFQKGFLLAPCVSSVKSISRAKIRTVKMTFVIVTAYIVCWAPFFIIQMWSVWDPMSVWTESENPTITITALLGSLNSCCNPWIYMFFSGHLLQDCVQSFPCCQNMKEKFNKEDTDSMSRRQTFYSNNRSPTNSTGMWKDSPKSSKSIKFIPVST

SMILES	Ki
COCCN1Cc2cc(Cl)ccc2-n2c(nnc2[C@H]2CC[C@H](c3cc(C)on3)CC2)C1 [Example 29, trans-8-Chloro-5-(2-methoxy-ethyl)-1-[4-(5-methyl-isoxazol-3-yl)-cyclohexyl]-5,6-dihydro-4H-2,3,5,10b-tetraaza-benzo[e]azulene]	1.58 nM
CNCCN1Cc2cc(Cl)ccc2-n2c(nnc2[C@H]2CC[C@H](c3cc(C)on3)CC2)C1 [Example 30, trans-(2-{8-Chloro-1-[4-(5-methyl-isoxazol-3-yl)-cyclohexyl]-4H,6H-2,3,5,10b-tetraaza-benzo[e]azulen-5-yl}-ethyl)-methyl-amine]	25.1 nM
CC(=O)N1Cc2cc(Cl)ccc2-n2c(nnc2[C@H]2CC[C@H](c3cc(C)on3)CC2)C1 [Example 31, trans-1-{8-Chloro-1-[4-(5-methyl-isoxazol-3-yl)-cyclohexyl]-4H,6H-2,3,5,10b-tetraaza-benzo[e]azulen-5-yl}-ethanone]	1.74 nM
Cc1cc([C@H]2CC[C@H](c3nnc4n3-c3ccc(Cl)cc3CN(C(=O)CO)C4)CC2)no1 [Example 32, trans-1-{8-Chloro-1-[4-(5-methyl-isoxazol-3-yl)-cyclohexyl]-4H,6H-2,3,5,10b-tetraaza-benzo[e]azulen-5-yl}-2-hydroxy-ethanone]	2.88 nM
Cc1cc([C@H]2CC[C@H](c3nnc4n3-c3ccc(Cl)cc3CN(C(=O)CN(C)C)C4)CC2)no1 [Example 33, trans-1-{8-Chloro-1-[4-(5-methyl-isoxazol-3-yl)-cyclohexyl]-4H,6H-2,3,5,10b-tetraaza-benzo[e]azulen-5-yl}-2-dimethylamino-ethanone hydroformate]	2 nM
Cc1cc([C@H]2CC[C@H](c3nnc4n3-c3ccc(Cl)cc3CN(S(C)(=O)=O)C4)CC2)no1 [Example 34, trans-8-Chloro-5-methanesulfonyl-1-[4-(5-methyl-isoxazol-3-yl)-cyclohexyl]-5,6-dihydro-4H-2,3,5,10b-tetraaza-benzo[e]azulene]	0.275 nM
Cc1cc([C@H]2CC[C@H](c3nnc4n3-c3ccc(Cl)cc3CN(S(=O)(=O)N(C)C)C4)CC2)no1 [Example 35, trans-8-Chloro-1-[4-(5-methyl-isoxazol-3-yl)-cyclohexyl]-4H,6H-2,3,5,10b-tetraaza-benzo[e]azulene-5-sulfonic acid dimethylamide]	0.501 nM
Cc1cc([C@H]2CC[C@H](c3nnc4n3-c3ccc(F)cc3CN(C(=O)OC(C)(C)C)C4)CC2)no1 [Example 36, trans-8-Fluoro-1-[4-(5-methyl-isoxazol-3-yl)-cyclohexyl]-4H,6H-2,3,5,10b-tetraaza-benzo[e]azulene-5-carboxylic acid tert-butyl ester]	0.776 nM
Cc1cc([C@H]2CC[C@H](c3nnc4n3-c3ccc(F)cc3CNC4)CC2)no1 [Example 37, trans-8-Fluoro-1-[4-(5-methyl-isoxazol-3-yl)-cyclohexyl]-5,6-dihydro-4H-2,3,5,10b-tetraaza-benzo[e]azulene]	91.2 nM
Cc1cc([C@H]2CC[C@H](c3nnc4n3-c3ccc(F)cc3CN(C)C4)CC2)no1 [Example 38, trans-8-Fluoro-1-[4-(5-methyl-isoxazol-3-yl)-cyclohexyl]-5-methyl-5,6-dihydro-4H-2,3,5,10b-tetraaza-benzo[e]azulene]	18.6 nM
Cc1onc([C@H]2CC[C@H](c3nnc4n3-c3ccc(Cl)cc3CN(C(=O)OC(C)(C)C)C4)CC2)c1C [Example 39, trans-8-Chloro-1-[4-(4,5-dimethyl-isoxazol-3-yl)-cyclohexyl]-4H,6H-2,3,5,10b-tetraaza-benzo[e]azulene-5-carboxylic acid tert-butyl ester]	0.2 nM
Cc1onc([C@H]2CC[C@H](c3nnc4n3-c3ccc(Cl)cc3CNC4)CC2)c1C [Example 40, trans-8-Chloro-1-[4-(4,5-dimethyl-isoxazol-3-yl)-cyclohexyl]-5,6-dihydro-4H-2,3,5,10b-tetraaza-benzo[e]azulene]	4.79 nM
Cc1onc([C@H]2CC[C@H](c3nnc4n3-c3ccc(Cl)cc3CN(C)C4)CC2)c1C [Example 41, trans-8-Chloro-1-[4-(4,5-dimethyl-isoxazol-3-yl)-cyclohexyl]-5-methyl-5,6-dihydro-4H-2,3,5,10b-tetraaza-benzo[e]azulene]	0.501 nM
Cc1onc([C@H]2CC[C@H](c3nnc4n3-c3ccc(Cl)cc3CN(C(=O)OC(C)(C)C)C4)CC2)c1Cl [Example 42, trans-8-Chloro-1-[4-(4-chloro-5-methyl-isoxazol-3-yl)-cyclohexyl]-4H,6H-2,3,5,10b-tetraaza-benzo[e]azulene-5-carboxylic acid tert-butyl ester]	0.398 nM
Cc1onc([C@H]2CC[C@H](c3nnc4n3-c3ccc(Cl)cc3CNC4)CC2)c1Cl [Example 43, trans-8-Chloro-1-[4-(4-chloro-5-methyl-isoxazol-3-yl)-cyclohexyl]-5,6-dihydro-4H-2,3,5,10b-tetraaza-benzo[e]azulene]	5.89 nM
Cc1onc([C@H]2CC[C@H](c3nnc4n3-c3ccc(Cl)cc3CN(C)C4)CC2)c1Cl [Example 44, trans-8-Chloro-1-[4-(4-chloro-5-methyl-isoxazol-3-yl)-cyclohexyl]-5-methyl-5,6-dihydro-4H-2,3,5,10b-tetraaza-benzo[e]azulene]	0.603 nM
Cc1onc([C@H]2CC[C@H](c3nnc4n3-c3ccc(Cl)cc3CN(C(=O)OC(C)(C)C)C4)CC2)c1F [Example 45, trans-8-Chloro-1-[4-(4-fluoro-5-methyl-isoxazol-3-yl)-cyclohexyl]-4H,6H-2,3,5,10b-tetraaza-benzo[e]azulene-5-carboxylic acid tert-butyl ester]	0.724 nM
Cc1onc([C@H]2CC[C@H](c3nnc4n3-c3ccc(Cl)cc3CNC4)CC2)c1F [Example 46, trans-8-Chloro-1-[4-(4-fluoro-5-methyl-isoxazol-3-yl)-cyclohexyl]-5,6-dihydro-4H-2,3,5,10b-tetraaza-benzo[e]azulene]	8.51 nM
Cc1onc([C@H]2CC[C@H](c3nnc4n3-c3ccc(Cl)cc3CN(C)C4)CC2)c1F [Example 47, trans-8-Chloro-1-[4-(4-fluoro-5-methyl-isoxazol-3-yl)-cyclohexyl]-5-methyl-5,6-dihydro-4H-2,3,5,10b-tetraaza-benzo[e]azulene]	0.575 nM
CCc1cc([C@H]2CC[C@@H](c3nnc4n3-c3ccc(Cl)cc3CN(C(=O)OC(C)(C)C)C4)CC2)no1 [Example 48, cis-8-Chloro-1-[4-(5-ethyl-isoxazol-3-yl)-cyclohexyl]-4H,6H-2,3,5,10b-tetraaza-benzo[e]azulene-5-carboxylic acid tert-butyl ester]	8.32 nM
CCc1cc([C@H]2CC[C@H](c3nnc4n3-c3ccc(Cl)cc3CN(C(=O)OC(C)(C)C)C4)CC2)no1 [Example 49, trans-8-Chloro-1-[4-(5-ethyl-isoxazol-3-yl)-cyclohexyl]-4H,6H-2,3,5,10b-tetraaza-benzo[e]azulene-5-carboxylic acid tert-butyl ester]	4.07 nM
CCc1cc([C@H]2CC[C@@H](c3nnc4n3-c3ccc(Cl)cc3CNC4)CC2)no1 [Example 50, cis-8-Chloro-1-[4-(5-ethyl-isoxazol-3-yl)-cyclohexyl]-5,6-dihydro-4H-2,3,5,10b-tetraaza-benzo[e]azulene hydrochloride]	182 nM
CCc1cc([C@H]2CC[C@@H](c3nnc4n3-c3ccc(Cl)cc3CN(C)C4)CC2)no1 [Example 51, cis-8-Chloro-1-[4-(5-ethyl-isoxazol-3-yl)-cyclohexyl]-5-methyl-5,6-dihydro-4H-2,3,5,10b-tetraaza-benzo[e]azulene]	15.5 nM
CCc1cc([C@H]2CC[C@H](c3nnc4n3-c3ccc(Cl)cc3CNC4)CC2)no1 [Example 52, trans-8-Chloro-1-[4-(5-ethyl-isoxazol-3-yl)-cyclohexyl]-5,6-dihydro-4H-2,3,5,10b-tetraaza-benzo[e]azulene hydrochloride]	6.31 nM
CCc1cc([C@H]2CC[C@H](c3nnc4n3-c3ccc(Cl)cc3CN(C)C4)CC2)no1 [Example 53, trans-8-Chloro-1-[4-(5-ethyl-isoxazol-3-yl)-cyclohexyl]-5-methyl-5,6-dihydro-4H-2,3,5,10b-tetraaza-benzo[e]azulene]	1.2 nM
CC(C)(C)OC(=O)N1Cc2cc(Cl)ccc2-n2c(nnc2[C@H]2CC[C@H](c3noc4c3CCCC4)CC2)C1 [Example 54, trans-8-Chloro-1-[4-(4,5,6,7-tetrahydro-benzo[d]isoxazol-3-yl)-cyclohexyl]-4H,6H-2,3,5,10b-tetraaza-benzo[e]azulene-5-carboxylic acid tert-butyl ester]	9.55 nM

From patent US8513238B2 (Hoffmann-La Roche Inc., priority 2010, dated 2013)
